PMC12404492, “The crystal structure of Thermus thermophilus UMP kinase complexed with a phosphoryl group acceptor and donor” (PLOS One, 2025)

Molecular target: T1, ttUMPK (UMP kinase of Thermus thermophilus HB8) (Thermus thermophilus, UniProt P43891)
T1 construct: gene pyrH; full-length gene in pET-11a (NdeI/BamHI), no tag mentioned; expressed in E. coli BL21(DE3), heat-treated; homohexamer by size exclusion
Assay: X-ray crystal structure, […] Å (second data set, PDB code not given)
Format: binding
Settings: active site, most chains

T1 sequence (P43891 whole entry): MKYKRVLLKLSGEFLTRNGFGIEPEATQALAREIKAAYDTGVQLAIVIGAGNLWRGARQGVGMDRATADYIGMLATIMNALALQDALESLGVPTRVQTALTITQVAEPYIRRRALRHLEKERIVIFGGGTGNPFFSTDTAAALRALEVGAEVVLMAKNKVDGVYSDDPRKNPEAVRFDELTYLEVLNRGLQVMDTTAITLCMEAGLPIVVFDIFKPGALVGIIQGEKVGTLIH

## O=c1ccn([C@@H]2O[C@H](COP(=O)(O)O)[C@@H](O)[C@H]2O)c(=O)[nH]1 [UMP]
  X-ray crystal structure, 2.5 Å (second data set, PDB code not given): most of the bound uridine nucleotides in the active site are UMP, not UDP
